From ChEMBL document CHEMBL3098031, “From NMDA receptor antagonists to discovery of selective σ₂ receptor ligands” (Bioorg Med Chem, 2014)
Activity calls are given as the source filed them. The rule behind the calls is not given here.

Experiments:
Cavia porcellus = species on record: Cavia porcellus; assay: Selectivity ratio of Ki for guinea pig brain sigma1 receptor to Ki for guinea pig brain sigma2 receptor
[1] = Displacement of [3H]DTG from guinea pig brain sigma2 receptor after 120 mins by scintillation counting analysis in presence of SKF10,047; parameters: species or system Cavia porcellus
[2] = target: Sigma non-opioid intracellular receptor 1 (Cavia porcellus, UniProt Q60492); assay: Displacement of [3H]-(+)-pentazocine from guinea pig brain sigma1 receptor after 150 mins by scintillation counting analysis
[3] = target: Glutamate receptor ionotropic, NMDA 2B (Rattus norvegicus) (UniProt Q00960); assay: Displacement of [3H]ifenprodil from Wistar rat cerebral cortex glutamate NMDA receptor GluN2B subunit at 10 uM after 120 mins by scintillation counting analysis; type: tissue-based
[4] = target: Glutamate receptor ionotropic, NMDA 2B (Rattus norvegicus, UniProt Q00960); assay: Displacement of [3H]ifenprodil from Wistar rat cerebral cortex glutamate NMDA receptor GluN2B subunit after 120 mins by scintillation counting analysis; type: tissue-based
Glutamate receptor ionotropic, NMDA 2B, sequence (Q00960 whole entry): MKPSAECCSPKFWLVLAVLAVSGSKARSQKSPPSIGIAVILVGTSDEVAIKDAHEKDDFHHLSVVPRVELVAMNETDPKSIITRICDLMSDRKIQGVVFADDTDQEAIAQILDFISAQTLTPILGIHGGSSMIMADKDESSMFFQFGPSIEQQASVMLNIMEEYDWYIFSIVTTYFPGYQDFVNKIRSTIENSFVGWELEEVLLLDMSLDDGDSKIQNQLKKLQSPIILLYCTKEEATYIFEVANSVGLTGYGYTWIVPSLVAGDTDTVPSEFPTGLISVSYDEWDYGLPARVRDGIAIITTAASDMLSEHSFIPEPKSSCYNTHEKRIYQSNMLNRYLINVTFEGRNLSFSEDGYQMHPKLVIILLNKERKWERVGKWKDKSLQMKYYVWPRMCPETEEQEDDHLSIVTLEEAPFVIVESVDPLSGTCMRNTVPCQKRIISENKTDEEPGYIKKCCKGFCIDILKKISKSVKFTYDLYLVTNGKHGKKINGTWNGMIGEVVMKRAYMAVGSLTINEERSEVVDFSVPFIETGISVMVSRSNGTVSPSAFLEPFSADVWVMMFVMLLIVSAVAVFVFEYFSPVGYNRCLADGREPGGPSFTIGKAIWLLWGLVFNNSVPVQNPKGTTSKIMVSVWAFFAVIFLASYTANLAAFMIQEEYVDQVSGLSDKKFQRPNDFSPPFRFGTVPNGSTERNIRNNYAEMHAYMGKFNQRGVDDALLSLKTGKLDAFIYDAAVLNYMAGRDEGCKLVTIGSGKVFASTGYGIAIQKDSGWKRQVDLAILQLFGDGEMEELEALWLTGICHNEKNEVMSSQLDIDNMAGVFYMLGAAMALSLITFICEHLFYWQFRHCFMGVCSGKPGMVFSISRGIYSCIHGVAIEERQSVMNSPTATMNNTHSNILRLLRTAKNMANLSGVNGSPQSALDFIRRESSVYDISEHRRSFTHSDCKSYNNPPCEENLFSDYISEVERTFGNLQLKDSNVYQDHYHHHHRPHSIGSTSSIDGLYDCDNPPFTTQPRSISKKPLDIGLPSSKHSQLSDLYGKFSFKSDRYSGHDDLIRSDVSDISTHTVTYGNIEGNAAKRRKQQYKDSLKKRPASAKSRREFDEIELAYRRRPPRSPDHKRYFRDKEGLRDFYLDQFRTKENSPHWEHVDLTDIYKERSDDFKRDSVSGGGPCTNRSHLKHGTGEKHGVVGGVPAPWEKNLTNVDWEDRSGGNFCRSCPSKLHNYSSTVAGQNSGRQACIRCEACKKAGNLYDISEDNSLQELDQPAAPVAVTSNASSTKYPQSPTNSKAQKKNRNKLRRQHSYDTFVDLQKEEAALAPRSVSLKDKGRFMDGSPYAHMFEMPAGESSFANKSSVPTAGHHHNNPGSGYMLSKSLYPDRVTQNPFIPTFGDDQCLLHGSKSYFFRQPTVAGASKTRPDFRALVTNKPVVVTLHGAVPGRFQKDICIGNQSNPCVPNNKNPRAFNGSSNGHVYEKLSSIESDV

Sigma non-opioid intracellular receptor 1, sequence (Q60492 whole entry): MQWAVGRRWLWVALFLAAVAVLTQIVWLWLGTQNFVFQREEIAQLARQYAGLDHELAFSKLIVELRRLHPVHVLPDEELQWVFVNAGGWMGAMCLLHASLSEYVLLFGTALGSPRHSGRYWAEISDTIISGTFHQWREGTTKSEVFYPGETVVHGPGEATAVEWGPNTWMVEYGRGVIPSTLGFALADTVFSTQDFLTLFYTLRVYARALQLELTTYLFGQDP
Glutamate receptor ionotropic, NMDA 2B (Rattus norvegicus), sequence (Q00960 27-1482 limits assumed): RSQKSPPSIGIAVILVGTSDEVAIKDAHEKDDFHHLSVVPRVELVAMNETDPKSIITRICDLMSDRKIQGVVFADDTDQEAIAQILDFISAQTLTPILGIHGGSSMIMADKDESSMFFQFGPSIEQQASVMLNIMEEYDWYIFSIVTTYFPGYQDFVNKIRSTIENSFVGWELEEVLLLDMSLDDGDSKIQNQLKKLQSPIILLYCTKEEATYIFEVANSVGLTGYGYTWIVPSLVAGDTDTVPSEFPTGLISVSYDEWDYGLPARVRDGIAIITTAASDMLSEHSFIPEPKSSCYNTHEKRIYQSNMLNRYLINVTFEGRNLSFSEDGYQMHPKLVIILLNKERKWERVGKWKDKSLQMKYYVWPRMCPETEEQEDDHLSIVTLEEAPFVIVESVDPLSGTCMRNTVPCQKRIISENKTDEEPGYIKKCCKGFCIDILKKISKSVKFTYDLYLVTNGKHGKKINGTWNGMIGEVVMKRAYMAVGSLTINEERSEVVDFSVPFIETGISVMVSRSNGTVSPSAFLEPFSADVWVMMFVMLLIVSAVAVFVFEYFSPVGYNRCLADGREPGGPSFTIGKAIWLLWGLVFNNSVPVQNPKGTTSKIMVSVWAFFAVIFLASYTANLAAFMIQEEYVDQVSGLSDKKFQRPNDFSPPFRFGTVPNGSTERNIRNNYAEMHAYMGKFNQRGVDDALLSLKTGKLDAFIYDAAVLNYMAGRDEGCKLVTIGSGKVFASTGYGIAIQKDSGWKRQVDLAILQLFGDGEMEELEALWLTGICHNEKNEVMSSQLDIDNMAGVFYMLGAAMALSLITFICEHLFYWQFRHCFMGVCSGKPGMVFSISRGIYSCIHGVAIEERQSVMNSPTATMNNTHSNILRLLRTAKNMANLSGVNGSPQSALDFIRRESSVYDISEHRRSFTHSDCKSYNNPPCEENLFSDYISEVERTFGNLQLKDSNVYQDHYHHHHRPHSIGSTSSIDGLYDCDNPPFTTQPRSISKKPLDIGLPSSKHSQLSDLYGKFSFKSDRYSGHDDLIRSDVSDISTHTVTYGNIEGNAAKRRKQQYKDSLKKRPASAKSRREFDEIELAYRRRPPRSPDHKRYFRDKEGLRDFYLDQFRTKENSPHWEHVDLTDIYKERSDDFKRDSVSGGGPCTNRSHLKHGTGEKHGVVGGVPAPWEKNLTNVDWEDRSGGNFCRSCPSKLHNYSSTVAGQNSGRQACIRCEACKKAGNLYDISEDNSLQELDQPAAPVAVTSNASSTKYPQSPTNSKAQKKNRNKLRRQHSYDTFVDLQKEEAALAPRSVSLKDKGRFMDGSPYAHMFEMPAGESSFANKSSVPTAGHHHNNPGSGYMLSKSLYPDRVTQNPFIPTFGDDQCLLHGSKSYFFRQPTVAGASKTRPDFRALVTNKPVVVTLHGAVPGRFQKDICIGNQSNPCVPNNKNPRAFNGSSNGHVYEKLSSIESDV

SMILES	Ratio Ki (Cavia porcellus)	Ki [1] [nM]	Ki [2] [nM]	inhibition [3]	Ki [4] [nM]
O=C(CN1CCC(Cc2ccccc2)CC1)c1c[nH]c2ccc(O)cc12	61.9	76.5	4730	92%	
COc1ccc2[nH]cc(C(=O)CN3CCC(C(C)=O)(c4ccccc4)CC3)c2c1				inactive	
COc1ccc2[nH]cc(C(=O)CN3CCC(C#N)(c4ccccc4)CC3)c2c1				11%	
COc1ccc2[nH]cc(C(=O)CN3CCC(O)(c4ccc(Br)cc4)CC3)c2c1	6	10	60	5%	
COc1ccc2[nH]cc(C(=O)CN3CCC(O)(c4ccccc4)CC3)c2c1	5	21	103	11%	
CC(=O)C1(c2ccccc2)CCN(CC(=O)c2c[nH]c3ccc(O)cc23)CC1				6%	
COc1ccc2[nH]cc(C(=O)CN3CCC(O)(c4ccc(Cl)cc4)CC3)c2c1	10.5	7.5	78.5	15%	
O=C(CN1CCC(O)(c2ccc(Cl)cc2)CC1)c1c[nH]c2ccc(O)cc12	11.9	47	557	26%	
N#CC1(c2ccccc2)CCN(CC(=O)c2c[nH]c3ccc(O)cc23)CC1				16%	
O=C(CN1CCC(c2ccccc2)CC1)c1c[nH]c2ccc(O)cc12	12	224	2680	51%	
O=C(CN1CCC(O)(c2ccc(Br)cc2)CC1)c1c[nH]c2ccc(O)cc12	3.2	57	185	40%	
O=C(CN1CCC(O)(c2ccccc2)CC1)c1c[nH]c2ccc(O)cc12	4.7	658	3080	32%	
COc1ccc2[nH]cc(C(=O)CN3CCC(Cc4ccccc4)CC3)c2c1	> 500	10	> 5000	86%	1670
COc1ccc2[nH]cc(C(=O)CN3CCC(c4ccccc4)CC3)c2c1	95.5	20	1910	8%	
